Laboratory results as given in patent US5399577A, “Isoxazole derivatives and salts thereof” (Taiho Pharmaceutical Co., Ltd., priority 1991, dated 1995).

Assays:
cyclooxygenase = experiment: Cyclooxygenase inhibiting effect; type: biochemical; conditions: seminal vasicular gland microsomes, 14C-arachidonic acid, prostaglandin E2 formation
Procedure: (1) Cyclooxygenase inhibiting effect
This assay was carried out by the method described in Russell J. Taylor et al., Biochem. Pharmacol., 25, 2479-2484 (1976).
^14 C-arachidonic acid was reacted with seminal vasicular gland microsomes and the test drugs at various concentrations over a predetermined period of time and the obtained prostaglandin E2 was separated by thin layer chromatography. The radioactivity of prostaglandin E2 was determined by liquid scintillation counter. The IC50 values were calculated by the comparison with the radioactivity of the control.

5-Lipoxygenase = target: T1, 5-Lipoxygenase (Cavia porcellus, UniProt A0A286X958); experiment: 5-Lipoxygenase inhibiting activity; type: biochemical; conditions: cytosol fraction of guinea pig polymorphonuclear leucocytes, 14C-arachidonic acid, 5-hydroxyeicosatetraenoic acid formation
T1 construct: the polymorphonuclear leucocytes were collected and the cytosol fraction was obtained as an enzyme source; endogenous in cells; host or cells: guinea pig peritoneal polymorphonuclear leucocytes, cytosol fraction
T1 sequence (A0A286X958 1-674): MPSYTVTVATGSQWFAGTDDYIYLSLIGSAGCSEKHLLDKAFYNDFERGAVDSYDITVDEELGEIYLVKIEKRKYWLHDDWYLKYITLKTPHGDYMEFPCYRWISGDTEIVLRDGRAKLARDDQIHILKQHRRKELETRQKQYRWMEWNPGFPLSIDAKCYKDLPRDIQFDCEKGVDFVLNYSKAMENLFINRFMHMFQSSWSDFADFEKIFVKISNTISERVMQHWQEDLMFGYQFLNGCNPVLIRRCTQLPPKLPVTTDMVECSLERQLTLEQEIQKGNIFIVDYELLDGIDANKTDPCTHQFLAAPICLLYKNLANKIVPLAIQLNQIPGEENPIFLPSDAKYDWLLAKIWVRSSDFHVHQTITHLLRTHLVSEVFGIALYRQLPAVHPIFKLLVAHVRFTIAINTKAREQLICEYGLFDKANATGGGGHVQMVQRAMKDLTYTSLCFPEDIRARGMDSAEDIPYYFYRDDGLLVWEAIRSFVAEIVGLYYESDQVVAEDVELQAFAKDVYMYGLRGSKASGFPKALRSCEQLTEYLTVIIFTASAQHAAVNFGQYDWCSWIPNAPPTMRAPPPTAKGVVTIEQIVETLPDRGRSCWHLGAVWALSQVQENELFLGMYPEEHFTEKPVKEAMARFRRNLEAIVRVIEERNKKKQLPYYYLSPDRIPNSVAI
Procedure: (2) 5-Lipoxygenase inhibiting activity
This assay was carried out by the method described in Kenkichi Ochi et al., J. Biol. Chem., 258, 5754-5758 (1983).
Casein was injected into the abdominal cavity of a guinea pig, and the polymorphonuclear leucocytes were collected and the cytosol fraction was obtained as an enzyme source. ^14 C-arachidonic acid was reacted with the enzyme and the test drug at various concentrations over a predetermined period of time. The obtained 5-hydroxyeicosatetraenoic acid was separated by thin layer chromatography and the radioactivity was determined. The IC^50 values were calculated by the comparison with the radioactivity of the control.

COc1ccc(-c2noc(CCCC(=O)/C=C/c3cc(OC)c(O)c(OC)c3)c2-c2ccc(OC)cc2)cc1 [Compound 39]
IC50 (cyclooxygenase): 1310 nM
IC50 (5-Lipoxygenase): 180 nM

COc1ccc(-c2noc(CCNC(=O)/C=C/C=C/c3ccc(O)c(OC)c3)c2-c2ccc(OC)cc2)cc1 [Compound 12]
IC50 (cyclooxygenase): 15 nM
IC50 (5-Lipoxygenase): 240 nM

Cc1ccc(-c2noc(CCNC(=O)/C=C/c3ccc(O)c(O)c3)c2-c2ccc(C)cc2)cc1 [Compound 7]
IC50 (cyclooxygenase): 2600 nM
IC50 (5-Lipoxygenase): 110 nM

COc1ccc(-c2noc(CCNC(=O)/C=C/c3ccc(O)c(O)c3)c2-c2ccc(OC)cc2)cc1 [Compound 5]
IC50 (cyclooxygenase): 100 nM
IC50 (5-Lipoxygenase): 113 nM

COc1ccc(-c2noc(CNC(=O)/C=C/C=C/c3cc(OC)c(O)c(OC)c3)c2-c2ccc(OC)cc2)cc1 [Compound 16]
IC50 (cyclooxygenase): 290 nM
IC50 (5-Lipoxygenase): 230 nM

COc1ccc(-c2noc(CCCC(=O)/C=C/c3ccc(O)c(O)c3)c2-c2ccc(OC)cc2)cc1 [Compound 38]
IC50 (cyclooxygenase): 140 nM
IC50 (5-Lipoxygenase): 55 nM

COc1ccc(-c2noc(CCNC(=S)/C=C/c3ccc(O)c(OC)c3)c2-c2ccc(OC)cc2)cc1 [Compound 48]
IC50 (cyclooxygenase): 30 nM
IC50 (5-Lipoxygenase): 630 nM

COc1ccc(-c2noc(CCOC(=O)/C=C/c3ccc(O)c(O)c3)c2-c2ccc(OC)cc2)cc1 [Compound 4]
IC50 (cyclooxygenase): 66 nM
IC50 (5-Lipoxygenase): 62 nM

O=C(/C=C/c1ccc(O)c(O)c1)NCCc1onc(-c2ccccc2)c1-c1ccccc1 [Compound 6]
IC50 (cyclooxygenase): 2600 nM
IC50 (5-Lipoxygenase): 100 nM

COc1ccc(-c2noc(CCNC(=O)/C=C/c3cc(OC)c(O)c(OC)c3)c2-c2ccc(OC)cc2)cc1 [Compound 10]
IC50 (cyclooxygenase): 100 nM
IC50 (5-Lipoxygenase): 670 nM

COc1ccc(-c2noc(C(=O)/C=C/C=C/c3ccc(O)c(OC)c3)c2-c2ccc(OC)cc2)cc1 [Compound 46]
IC50 (cyclooxygenase): 280 nM
IC50 (5-Lipoxygenase): 390 nM

COc1ccc(-c2noc(CCCC(=O)/C=C/c3cc(C)c(O)c(C)c3)c2-c2ccc(OC)cc2)cc1 [Compound 40]
IC50 (cyclooxygenase): 240 nM
IC50 (5-Lipoxygenase): 3030 nM

COc1ccc(-c2noc(CNC(=O)/C=C/C=C/c3ccc(O)c(OC)c3)c2-c2ccc(OC)cc2)cc1 [Compound 15]
IC50 (cyclooxygenase): 50 nM
IC50 (5-Lipoxygenase): 110 nM

COc1ccc(-c2noc(CCNC(=O)/C=C/C=C/c3c(OC)cc(O)cc3OC)c2-c2ccc(OC)cc2)cc1 [Compound 14]
IC50 (cyclooxygenase): < 10 nM
IC50 (5-Lipoxygenase): 130 nM

COc1ccc(-c2noc(CCNC(=O)/C=C/C=C/c3cc(OC)c(O)c(OC)c3)c2-c2ccc(OC)cc2)cc1 [Compound 13]
IC50 (cyclooxygenase): 10 nM
IC50 (5-Lipoxygenase): 50 nM

COc1ccc(-c2c(-c3ccc(Cl)cc3)noc2CCNC(=O)/C=C/c2ccc(O)c(O)c2)cc1 [Compound 8]
IC50 (cyclooxygenase): 1500 nM
IC50 (5-Lipoxygenase): 86 nM
